Test results from US12061202B2, “Compositions and methods for bioluminescent detection using multifunctional probes” (Promega Corporation, priority 2019, dated 2024).

Legend:
Assay type in all cases: cell-based
K562 cells = assay: Cell viability after labeling, CellTiter-Glo, K562; conditions: labeled at 2 and 5 μM
Experimental: (§1) For assay optimization, labeling the cells at different probe concentrations and setting up cell titration curves can be advantageous. To evaluate effect of labeling on cell viability, different viability/toxicity assays can also be used. Here, an example of assay optimization is provided using Raji and K562 cells. […] However, labeling efficiency, toxicity, assay linearity, and assay window differed depending on the cell line and labeling conditions. […] Labeling K562 at 2 μM extended linear range of the assay up to 20,000 cells/well, however assay window decreased from 18-fold to 7-8-fold.
(§2) No labeling control was included for toxicity evaluation. After labeling, the cells were resuspended in appropriate medium, counted, and plated into wells of a 96-well plate at two-fold serial dilution starting from 20,000 cells/well. The Detection Reagents with or without digitonin were added as described above, and the plates were placed into a tissue culture incubator. After incubation, Nano-Glo® Luciferase Assay substrate was added to the samples, and luminescence was read. After reading luminescence, an equal volume of CellTiter-Glo was added to the samples to measure changes in viability. […] The linear range of the assay is underlined. Dead/Live is the ratio between luminescence signal of dead and live cells calculated after assay background subtraction (media control).

Raji cells [1] = assay: Release of labeled proteins from dead cells, NanoBiT bioluminescence, Raji; conditions: for Dead/Live at 5,000 cells/well: final labeling probe concentration 2 μM; for Dead, RLUs: dead (digitonin treated) cells; for Live, RLUs: live cells; for Dead/Live: ratio after background subtraction
Experimental: (§3) Next, the bifunctional labeling probe was thawed at room temperature and mixed. The probe was generally contained in DMSO. The bifunctional probe was added to the cells at a final concentration between about 0.5-10 μM. The cells were then mixed by gently pipetting and incubated for 30 minutes at 37° C. To inactivate unreactive free labeling probe, a 10× volume of pre-warmed (37° C.) cell culture medium containing 10% FBS was added, and the cells incubated for additional 5 minutes. The labeled cells were then spun down, and the labeling media removed. The cells were resuspended in fresh cell culture media at the concentration required for the experiment.
In some embodiments, one or more components of the NanoBiT® system can be used for measuring cell death of pre-labeled cell population in mixed cell cultures. Here, an exemplary protocol is described for using this assay in 96-well plates in […]: 50 μl of sample+50 μl of Detection Reagent+25 μl of Nano-Glo® Luciferase Assay substrate.
Labeled cells (1,250-10,000 cells/well) were plated with experimental treatment conditions (e.g., drug, effector cells, etc.) in 50 μl of appropriate medium. Wells without cells were included as negative controls to determine background luminescence in the media. Separate wells were included with pre-labeled cells for determining maximum release of labeled proteins. Detection Reagents were assembled: about 1 ml of Detection Reagent buffer (2×) was combined with about 1.25 μl of Detection Component 1 and 1.25 μl of Detection Component 2. If maximum release determination was needed, the required amount of prepared Detection Reagent (50 μl/per sample) was removed, and digitonin at 0.12 mg/ml concentration added (for example, add 6 μl to 1 ml of Detection Reagent).
About 50 μl of prepared Detection Reagent was added into all assay wells and negative (media) control wells. Detection Reagent with Digitonin was added into control wells for determining maximum release. The cells were placed into a tissue culture incubator, and the treatment continued up to 24 hours. Nano-Glo® Luciferase Assay Substrate was prepared by diluting (1:50) substrate into assay medium. The assay plate was then removed from the tissue culture incubator and equilibrated to room temperature for about 5 mins. About 25 μL of prepared substrate was added to the assay wells, mixed, and luminescence was read.
as §2

various cell types = assay: Labeling of various cell types with bifunctional probe, NanoBiT detection (FIG. 2B)
Text: As shown in FIGS. 2A-2B, a variety of cells were labeled with the bifunctional probes of the present disclosure. FIG. 2A is a representative schematic diagram of a method used to label the various target cells identified in FIG. 2B. […] Robust luminescence was detected from the labeled proteins released after cell death, which were quantified using the NanoBiT® system, while little luminescence was detected in the media and live cells.
In accordance with these experiments, the various cell types tested were collected by centrifugation for 5 mins at 300 g followed by aspiration of the media and resuspension in PBS. The bifunctional probe was then added to the media and allowed to incubate for 30 mins at 37° C. Pre-warmed (37° C.) complete media containing 10% serum was then added to the cells and incubated for 5 mins at 37° C. The labeled cells were then collected by centrifugation for 5 mins at 300 g and excess media was removed, and the labeled cells were then resuspended in the desired media. NanoBiT® detection reagents were then added to the labeled cells and allowed to incubate for 30 mins at 37° C. prior to reading luminescence (RLUs).

Raji cells [2] = assay: Cell viability after labeling, CellTiter-Glo, Raji
Experimental: as §1, §2

HCT116 = assay: Release of labeled proteins from dead cells, NanoBiT bioluminescence, HCT116; conditions: final labeling probe concentration 10 μM
Experimental: as §3
In some embodiments, one or more components of the NanoBiT® system can be used for measuring cell death of pre-labeled cell population in mixed cell cultures. […]
Labeled cells (1,250-10,000 cells/well) were plated with experimental treatment conditions (e.g., drug, effector cells, etc.) in 50 μl of appropriate medium. Wells without cells were included as negative controls to determine background luminescence in the media. […]
About 50 μl of prepared Detection Reagent was added into all assay wells and negative (media) control wells. […] About 25 μL of prepared substrate was added to the assay wells, mixed, and luminescence was read.

Compound: O=C(NCCOCCOCCCCCCCl)c1ccc(C(=O)ON2C(=O)CCC2=O)cc1 [Labeling Probe, 2,5-dioxopyrrolidin-1-yl 4-((2-(2-((6-chlorohexyl)oxy)ethoxy)ethyl)carbamoyl)benzoate]
- cell viability measured with CellTiter-Glo (K562 cells): no decrease in cell viability
- Dead/Live at 5,000 cells/well (Raji cells [1]; at 4 h): 35.4
- Dead/Live at 5,000 cells/well (Raji cells [1]; at 24 h): 21.7
- assay window (Raji cells [1]; labeling concentration 1 μM): > 5 fold
- increase in luminescence signal in live cells from media only control (Raji cells [1]; labeling with 5 μM): > 2 fold
- Dead, RLUs (Raji cells [1]; probe 1 μM, 1,250 cells/well): 112,901 RLUs
- Live, RLUs (Raji cells [1]; probe 1 μM, 1,250 cells/well): 71,937 RLUs
- Dead/Live (Raji cells [1]; probe 1 μM, 1,250 cells/well): 6.0
- Dead, RLUs (Raji cells [1]; probe 1 μM, 2,500 cells/well): 164,403 RLUs
- Live, RLUs (Raji cells [1]; probe 1 μM, 2,500 cells/well): 78,455 RLUs
- Dead/Live (Raji cells [1]; probe 1 μM, 2,500 cells/well): 6.8
- Dead, RLUs (Raji cells [1]; probe 1 μM, 5,000 cells/well): 257,879 RLUs
- Live, RLUs (Raji cells [1]; probe 1 μM, 5,000 cells/well): 88,466 RLUs
- Dead/Live (Raji cells [1]; probe 1 μM, 5,000 cells/well): 7.9
- Dead, RLUs (Raji cells [1]; probe 1 μM, 10,000 cells/well): 403,731 RLUs
- Live, RLUs (Raji cells [1]; probe 1 μM, 10,000 cells/well): 107,531 RLUs
- Dead/Live (Raji cells [1]; probe 1 μM, 10,000 cells/well): 7.8
- Dead, RLUs (Raji cells [1]; probe 1 μM, 20,000 cells/well): 731,355 RLUs
- Live, RLUs (Raji cells [1]; probe 1 μM, 20,000 cells/well): 134,572 RLUs
- Dead/Live (Raji cells [1]; probe 1 μM, 20,000 cells/well): 9.4
- Live, RLUs (Raji cells [1]; probe 5 μM, 1,250 cells/well): 210,695 RLUs
- Dead/Live (Raji cells [1]; probe 5 μM, 1,250 cells/well): 7.7
- Dead, RLUs (Raji cells [1]; probe 5 μM, 2,500 cells/well): 2,179,562 RLUs
- Live, RLUs (Raji cells [1]; probe 5 μM, 2,500 cells/well): 317,452 RLUs
- Dead/Live (Raji cells [1]; probe 5 μM, 2,500 cells/well): 8.2
- Dead, RLUs (Raji cells [1]; probe 5 μM, 5,000 cells/well): 3,826,655 RLUs
- Live, RLUs (Raji cells [1]; probe 5 μM, 5,000 cells/well): 508,581 RLUs
- Dead/Live (Raji cells [1]; probe 5 μM, 5,000 cells/well): 8.4
- Dead, RLUs (Raji cells [1]; probe 5 μM, 10,000 cells/well): 4,916,472 RLUs
- Live, RLUs (Raji cells [1]; probe 5 μM, 10,000 cells/well): 672,232 RLUs
- Dead/Live (Raji cells [1]; probe 5 μM, 10,000 cells/well): 7.9
- Dead, RLUs (Raji cells [1]; probe 5 μM, 20,000 cells/well): 3,314,700 RLUs
- Live, RLUs (Raji cells [1]; probe 5 μM, 20,000 cells/well): 645,489 RLUs
- Dead/Live (Raji cells [1]; probe 5 μM, 20,000 cells/well): 5.6
- uptake of probe by cells (various cell types): successfully taken up by every cell tested
- effect on cell viability (Raji cells [2]; labeling concentration 1 μM): without significant effect on cell viability
- decrease in cell viability as measured by CellTiter-Glo (Raji cells [2]; labeling with 5 μM): more than 40%
- Dead/Live at 5,000 cells/well (HCT116; at 4 h): 8.1
- Dead/Live at 5,000 cells/well (HCT116; at 24 h): 6.7
